Results taken from PMC4579270, “Identification and Characterization of an Irreversible Inhibitor of CDK2” (Chemistry & Biology, 2015).

Tests used:
CDK2^D86A = biological target: T1, CDK2^D86A (Homo sapiens, UniProt P24941, D86A); assay: ESI-MS of covalent adduct, mutant; conditions: CDK2^D86A/cyclin A, overnight incubation
T1 construct: GST (N, cleaved yes); made in house; host or cells: Escherichia coli; phosphorylated in vitro by GST-CAK
Experimental: (§1) These residues were individually mutated to an alanine, glutamate, or valine, respectively, and the resulting mutant CDK2/cyclin A complexes were analyzed by ESI-MS following overnight incubation with either NU6300 (exact mass 413.15) or DMSO (Figure S2 and Table S1).
(§2) Figure S2, Related to Figure 3. Identification of the site of CDK2 modification by NU6300. (A-G) Single site CDK2 mutants CDK2D86A, CDK2K88E, and CDK2K89V identify the site of CDK2 modification by NU6300. These mutations change the CDK2 sequence to that of CDK7 and are known not to disrupt the CDK2 fold. Mass spectra of CDK2 mutants:
(§3) (A), (D), CDK2D86A/cyclin A; (B), (E), CDK2K88E/cyclin A; (C), (F), CDK2K89V/cyclin A (3 mg/mL) pre-incubated overnight in the absence/presence of NU6300. (A-C), positive controls, CDK2/cyclin A mutants assayed in the absence of NU6300; (D-F), CDK2/cyclin A mutants pre-incubated with NU6300. For each mutant, the experimentally determined and […]
(§4) (G) Protein kinase activity of authentic CDK2 and single site CDK2 mutants following incubation with NU6300 or NU6310. Samples were taken at the indicated number of minutes after initiation of the reaction. Note that compared to authentic CDK2, the single site Lys88 and Lys89 mutants have a slower rate of reaction (Compare LHS panels). […]

CDK2^K89V = biological target: T2, CDK2^K89V (Homo sapiens, UniProt P24941, K89V); assay: ESI-MS of covalent adduct, mutant; conditions: CDK2^K89V/cyclin A, overnight incubation
T2 construct: GST (N, cleaved yes); made in house; host or cells: Escherichia coli; phosphorylated in vitro by GST-CAK
Experimental: as §1, §2, §3, §4

p38δ MAPK = p38δ MAPK (Homo sapiens, UniProt O15264); assay: Dundee protein kinase screen; type: biochemical; conditions: read-out: %Remaining activity at 1µM NU6300
Chain of p38δ MAPK (O15264 whole entry): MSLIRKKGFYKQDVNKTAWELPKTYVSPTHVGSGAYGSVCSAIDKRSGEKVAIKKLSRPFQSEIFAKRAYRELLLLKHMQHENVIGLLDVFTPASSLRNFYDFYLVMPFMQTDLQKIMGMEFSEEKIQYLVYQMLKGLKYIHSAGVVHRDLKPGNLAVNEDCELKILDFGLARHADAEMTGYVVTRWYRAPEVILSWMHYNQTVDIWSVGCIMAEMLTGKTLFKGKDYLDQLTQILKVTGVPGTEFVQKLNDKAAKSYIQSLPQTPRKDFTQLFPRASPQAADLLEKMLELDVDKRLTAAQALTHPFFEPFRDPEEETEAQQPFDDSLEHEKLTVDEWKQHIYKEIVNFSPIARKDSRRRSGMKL
In short: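 Selectivity panel of 131 protein kinases, inhibitor tested at a single concentration of 1 µM; values are % kinase activity remaining, mean of duplicates. Re-test of selected kinases used 0.5 µM in the standard format and again after a 4 hour pre-incubation with the inhibitor.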

C=CS(=O)(=O)c1ccc(Nc2nc(OCC3CCCCC3)c3nc[nH]c3n2)cc1 [NU6300, 6-(cyclohexylmethoxy)-N-(4-(vinylsulfonyl)phenyl)-9H-purin-2-amine]
mass added to major CDK2 species (ESI-MS) (CDK2^D86A): 414 Da | mass added to major CDK2 species (ESI-MS) (CDK2^K89V): no additional mass | remaining activity at 1 µM (p38δ MAPK): 92%
